system: tau protein; experiment: Tau protein in vitro degradation assay (Western blot, Tau-13 antibody); type: cell-based, human; conditions: SK-N-SH cells; 72 hours of incubation; tested at 300 nM, 100 nM, 33 nM and 11 nM; Western blot, Tau-13 antibody
In short: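 SK-N-SH cells, seeded ≥18 h beforehand, were incubated 72 h with tau PROTACs at 1000, 300 and 100 nM or at 300, 100, 33 and 11 nM. Lysates in protease-inhibitor buffer were resolved by SDS-PAGE; tau quantified by Western blot with Tau-13 antibody recognising all human tau forms.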

Compound	Degradation activity (tau protein remaining; highest amount of degradation observed at any dosage)	Degradation activity* (highest amount of degradation observed at any dosage; tau protein remaining)
Cn1c2ccncc2c2ccc(-c3ccc(O[C@H]4C[C@H](N(C)C(=O)C56CC(COCCCCOc7ccc8c(c7)C(=O)N(C7CCC(=O)NC7=O)C8=O)(C5)C6)C4)nc3)cc21 (stereo partly drawn) [Compound 199, 3-((4-((2-(2,6-dioxopiperidin-3-yl)-1,3-dioxoisoindolin-5-yl)oxy)butoxy)methyl)-N-methyl-N-((1r,3r)-3-((5-(5-methyl-5H-pyrido[4,3-b]indol-7-yl)pyridin-2-yl)oxy)cyclobutyl)bicyclo[1.1.1]pentane-1-carboxamide]	C (>80% tau protein remaining after 72 hours of incubation with the test compound)	–
Cn1c2ccncc2c2ccc(-c3cnc(O[C@H]4C[C@H](OCCCOCCCN5CC(Oc6ccc7c(c6)C(=O)N(C6CCC(=O)NC6=O)C7=O)C5)C4)c(C(F)(F)F)c3)cc21 (stereo partly drawn) [Compound 105, 2-(2,6-dioxopiperidin-3-yl)-5-((1-(3-(3-((1r,3r)-3-((5-(5-methyl-5H-pyrido[4,3-b]indol-7-yl)-3-(trifluoromethyl)pyridin-2-yl)oxy)cyclobutoxy)propoxy)propyl)azetidin-3-yl)oxy)isoindoline-1,3-dione]	–	A (≤50% tau protein remaining after 72 hours of incubation with the test compound)
Cn1c2ccncc2c2ccc(-c3ccc(O[C@H]4C[C@H](Oc5ccc(CCCCCCOc6ccc7c(c6)C(=O)N(C6CCC(=O)NC6=O)C7=O)nn5)C4)nc3)cc21 (stereo partly drawn) [Compound 149, 2-(2,6-dioxopiperidin-3-yl)-5-((6-(6-((1r,3r)-3-((5-(5-methyl-5H-pyrido[4,3-b]indol-7-yl)pyridin-2-yl)oxy)cyclobutoxy)pyridazin-3-yl)hexyl)oxy)isoindoline-1,3-dione]	–	B (≤80% and >50% tau protein remaining after 72 hours of incubation with the test compound)
Cn1c2ccncc2c2ccc(-c3ccc(O[C@H]4C[C@H](OCC56CC(COCCOCCOc7ccc8c(c7)C(=O)N(C7CCC(=O)NC7=O)C8=O)(C5)C6)C4)nc3)cc21 (stereo partly drawn) [Compound 209, 2-(2,6-dioxopiperidin-3-yl)-5-(2-(2-((3-(((1r,3r)-3-((5-(5-methyl-5H-pyrido[4,3-b]indol-7-yl)pyridin-2-yl)oxy)cyclobutoxy)methyl)bicyclo[1.1.1]pentan-1-yl)methoxy)ethoxy)ethoxy)isoindoline-1,3-dione]	A (≤50% tau protein remaining after 72 hours of incubation with the test compound)	–
O=C1CCC(N2C(=O)c3ccc(OCCCc4ccc(N5CCN(CCCc6ccc(-c7ccc8c(c7)[nH]c7ccncc78)cn6)CC5)nc4)cc3C2=O)C(=O)N1 (stereo not drawn) [Compound 55, 5-(3-(6-(4-(3-(5-(5H-pyrido[4,3-b]indol-7-yl)pyridin-2-yl)propyl)piperazin-1-yl)pyridin-3-yl)propoxy)-2-(2,6-dioxopiperidin-3-yl)isoindoline-1,3-dione]	–	C (>80% tau protein remaining after 72 hours of incubation with the test compound)
O=C1CCC(N2C(=O)c3cc(F)c(OCCOCCOCCOCCOCCOc4ccc(-c5ccc6c(c5)[nH]c5ccncc56)cn4)cc3C2=O)C(=O)N1 (stereo not drawn) [Compound 81, 5-((14-((5-(5H-pyrido[4,3-b]indol-7-yl)pyridin-2-yl)oxy)-3,6,9,12-tetraoxatetradecyl)oxy)-2-(2,6-dioxopiperidin-3-yl)-6-fluoroisoindoline-1,3-dione]	–	A (≤50% tau protein remaining after 72 hours of incubation with the test compound)
O=C1CCC(N2C(=O)c3ccc(OC4CN(CCCOCCCO[C@H]5C[C@H](Oc6ncc(-c7ccc8c(c7)[nH]c7ccncc78)cc6C(F)(F)F)C5)C4)cc3C2=O)C(=O)N1 (stereo partly drawn) [Compound 101, 5-((1-(3-(3-((1r,3r)-3-((5-(5H-pyrido[4,3-b]indol-7-yl)-3-(trifluoromethyl)pyridin-2-yl)oxy)cyclobutoxy)propoxy)propyl)azetidin-3-yl)oxy)-2-(2,6-dioxopiperidin-3-yl)isoindoline-1,3-dione]	–	A (≤50% tau protein remaining after 72 hours of incubation with the test compound)
Cn1c2ccncc2c2ccc(-c3cnc(O[C@H]4C[C@H](OC5CCN(CCCCCOc6ccc7c(c6)C(=O)N(C6CCC(=O)NC6=O)C7=O)CC5)C4)c(C(F)(F)F)c3)cc21 (stereo partly drawn) [Compound 123, 2-(2,6-dioxopiperidin-3-yl)-5-((5-(4-((1r,3r)-3-((5-(5-methyl-5H-pyrido[4,3-b]indol-7-yl)-3-(trifluoromethyl)pyridin-2-yl)oxy)cyclobutoxy)piperidin-1-yl)pentyl)oxy)isoindoline-1,3-dione]	–	C (>80% tau protein remaining after 72 hours of incubation with the test compound)
O=C1CCC(N2C(=O)c3ccc(OCCOCC#Cc4ccc(O[C@H]5C[C@H](Oc6ccc(-c7ccc8c(c7)[nH]c7ccncc78)cn6)C5)cn4)cc3C2=O)C(=O)N1 (stereo partly drawn) [Compound 173, 5-(2-((3-(5-((1r,3r)-3-((5-(5H-pyrido[4,3-b]indol-7-yl)pyridin-2-yl)oxy)cyclobutoxy)pyridin-2-yl)prop-2-yn-1-yl)oxy)ethoxy)-2-(2,6-dioxopiperidin-3-yl)isoindoline-1,3-dione]	A (≤50% tau protein remaining after 72 hours of incubation with the test compound)	–

same assay, conditions: SK-N-SH cells; 72 hours of incubation; tested at 1000 nM, 300 nM and 100 nM

Compound	Activity* (highest amount of degradation observed at any dosage, as tau protein remaining)
Cc1ncoc1-c1ccc([C@H](C)NC(=O)[C@@H]2C[C@@H](O)CN2C(=O)[C@@H](NC(=O)COCCOCCOCCOCCN2CCN(c3ccn4c(n3)nc3ccccc34)CC2)C(C)(C)C)cc1 [Compound 20, (2S,4R)-1-((S)-17-(4-(benzo[4,5]imidazo[1,2-a]pyrimidin-2-yl)piperazin-1-yl)-2-(tert-butyl)-4-oxo-6,9,12,15-tetraoxa-3-azaheptadecanoyl)-4-hydroxy-N—((S)-1-(4-(4-methyloxazol-5-yl)phenyl)ethyl)pyrrolidine-2-carboxamide]	C (>80% tau protein remaining after 72 hours of incubation with the test compound)
Cc1ncsc1-c1ccc(CNC(=O)[C@@H]2C[C@@H](O)CN2C(=O)[C@@H](NC(=O)COCCOCCOCCOCCN2CCN(c3ccn4c(n3)nc3ccccc34)CC2)C(C)(C)C)cc1 [Compound 23, (2S,4R)-1-((5)-17-(4-(benzo[4,5]imidazo[1,2-a]pyrimidin-2-yl)piperazin-1-yl)-2-(tert-butyl)-4-oxo-6,9,12,15-tetraoxa-3-azaheptadecanoyl)-4-hydroxy-N-(4-(4-methylthiazol-5-yl)benzyl)pyrrolidine-2-carboxamide]	C (>80% tau protein remaining after 72 hours of incubation with the test compound)
Cc1ncsc1-c1ccc([C@H](C)NC(=O)[C@@H]2C[C@@H](O)CN2C(=O)[C@@H](NC(=O)COCCOCCOCCOCC(=O)N2CCN(c3ccn4c(n3)nc3ccccc34)CC2)C(C)(C)C)cc1 [Compound 18, (2S,4R)-1-((S)-17-(4-(benzo[4,5]imidazo[1,2-a]pyrimidin-2-yl)piperazin-1-yl)-2-(tert-butyl)-4,17-dioxo-6,9,12,15-tetraoxa-3-azaheptadecanoyl)-4-hydroxy-N—((S)-1-(4-(4-methylthiazol-5-yl)phenyl)ethyl)pyrrolidine-2-carboxamide]	C (>80% tau protein remaining after 72 hours of incubation with the test compound)
